According to patent US9783531B2, “Thiazole-substituted aminoheteroaryls as spleen tyrosine kinase inhibitors” (Merck Sharp & Dohme Corp., priority 2013, dated 2017):
pIC50: −log10 of the molar value.

test system: not given; test: not given; details: phase II clinical trial, allergic rhinitis; cited from earlier work

SMILES | efficacy versus placebo
Oc1cccc(Nc2ncc(F)c(Nc3cccc(O)c3)n2)c1 [Example R112] | lack of efficacy versus placebo

test system: not given; test: not given; details: dosed intranasally, phase I/II study, allergic rhinitis; cited from earlier work

SMILES | PGD2 (immune mediator) | clinical safety
Oc1cccc(Nc2ncc(F)c(Nc3cccc(O)c3)n2)c1 [Example R112] | statistically significant decrease in PGD2 | safe across a range of indicators

target: T1, recombinant human GST-SYK (Homo sapiens, UniProt P43405); test: Homogeneous Time-Resolved Fluorescence (HTRF) assay for the recombinant human Syk enzyme; assay type: biochemical; details: recombinant human GST-SYK 5 pM, ATP 25 μM, read-out: rhSyk
T1 construct: purchased Carna Biosciences 08-176
Protocol: Homogeneous Time-Resolved Fluorescence (HTRF) Assay for the Recombinant Human Syk Enzyme
A recombinant GST-hSYK fusion protein was used to measure potency of compounds to inhibit human Syk activity. The recombinant human GST-SYK (Carna Biosciences #08-176) (5 pM final concentration) was incubated with various concentrations of the inhibitor diluted in DMSO (0.1% final concentration) for 10 minutes at room temperature in 15 mM Tris-HCl (pH 7.5), 0.01% tween 20, 2 mM DTT in 384 well plate format. To initiate the reaction the biotinylated substrate peptide (250 nM final concentration) that contains the phosphorylation site for Syk was added with magnesium (5 mM final concentration) and ATP (25 μM final concentration). Final volume of the reaction was 10 μL. Phosphorylation of the peptide was allowed to proceed for 45′ at room temperature. To quench the reaction and detect the phosphorylated product, 2 nM of a Europium-anti-phosphotyrosine antibody (Perkin Elmer #AD0161) and 70 nM SA-APC (Perkin-Elmer #CR130-100) were added together in 15 mM Tris pH 7.5, 40 mM EDTA, 0.01% tween 20. Final volume of the quenching solution was 10 μL.
The resulting HTRF signal was measured after 30 minutes on an EnVision (Perkin-Elmer) reader using a time-resolved fluorescence protocol. Table A below lists activities as IC50 values (nM) for representative compounds of the invention.

pIC50 | SMILES
6.03 | Cc1cc(Nc2cc(C)[nH]n2)cc(-c2cnc(C3(O)CCC3)s2)c1 [Example 2.5, 1-(5-{3-methyl-5-[(5-methyl-1H-pyrazol-3-yl)amino]phenyl}-1,3-thiazol-2-yl)cyclobutanol]
8.13 | Cc1cc(Nc2ncn(C3CCC3)n2)cc(-c2cnc(C3(O)CCC3)s2)c1 [Example 2.17, 1-(5-{3-[(1-cyclobutyl-1H-1,2,4-triazol-3-yl)amino]-5-methylphenyl}-1,3-thiazol-2-yl)cyclobutanol]
5.94 | Cc1cc(Nc2ncn(C)n2)cc(-c2cnc(C3(O)CCC(C(=O)OC(C)(C)C)CC3)s2)c1 (centres unmarked) [Example 1.1, tert-butyl 4-hydroxy-4-(5-(3-methyl-5-((1-methyl-1H-1,2,4-triazol-3-yl)amino)phenyl)thiazol-2-yl)cyclohexanecarboxylate]
9.41 | Cc1cc(Nc2ncn(C3CCC3)n2)cc(-c2cnc([C@]3(O)CC[C@@H](C(=O)O)C(C)(C)C3)s2)c1 (single isomer, unassigned) [Example 2.24, (1R,4S or 1S,4R)-4-(5-{3-[(1-cyclobutyl-1H-1,2,4-triazol-3-yl)amino]-5-methylphenyl}-1,3-thiazol-2-yl)-4-hydroxy-2,2-dimethylcyclohexanecarboxylic acid]
5.95 | CCn1cnc(Nc2cc(C)cc(-c3cnc(C4(O)CCC(C(=O)OC(C)(C)C)CC4)s3)c2)n1 (centres unmarked) [Example 2.1, tert-butyl 4-(5-(3-((1-ethyl-1H-1,2,4-triazol-3-yl)amino)-5-methylphenyl)thiazol-2-yl)-4-hydroxycyclohexanecarboxylate]
6.74 | Cc1cc(Nc2cc(C3CC3)[nH]n2)cc(-c2cnc(C3(O)CCC3)s2)c1 [Example 2.6, 1-(5-{3-[(5-cyclopropyl-1H-pyrazol-3-yl)amino]-5-methylphenyl}-1,3-thiazol-2-yl)cyclobutanol]
7.30 | CCn1cnc(Nc2cc(C)cc(-c3cnc([C@]4(O)CC[C@@H](C(N)=O)CC4)s3)c2)n1 [Example 2.3, 4-(5-(3-((1-Ethyl-1H-1,2,4-triazol-3-yl)amino)-5-methylphenyl)thiazol-2-yl)-4-hydroxycyclohexanecarboxamide]
6.44 | Cc1cc(Nc2ncn(-c3ccccc3)n2)cc(-c2cnc(C3(O)CCC3)s2)c1 [Example 2.14, 1-(5-{3-methyl-5-[(1-phenyl-1H-1,2,4-triazol-3-yl)amino]phenyl}-1,3-thiazol-2-yl)cyclobutanol]
7.25 | Cc1cc(Nc2ncn(C)n2)cc(-c2cnc(C3(O)CCC(C(=O)O)CC3)s2)c1 (centres unmarked) [Example 1.2, 4-hydroxy-4-(5-(3-methyl-5-((1-methyl-1H-1,2,4-triazol-3-yl)amino)phenyl)thiazol-2-yl)cyclohexanecarboxylic acid]
6.00 | Cc1cc(Nc2ncn(C(C)C)n2)cc(-c2cnc([C@]3(O)CC[C@@H](C(=O)OC(C)(C)C)CC3)s2)c1 [Example 2.20, tert-butyl cis-4-hydroxy-4-[5-(3-methyl-5-{[1-(1-methylethyl)-1H-1,2,4-triazol-3-yl]amino}phenyl)-1,3-thiazol-2-yl]cyclohexanecarboxylate]
7.31 | Cc1cc(Nc2ncn(C(C)C)n2)cc(-c2cnc(C3(O)CCC3)s2)c1 [Example 2.11, 1-[5-(3-methyl-5-{[1-(1-methylethyl)-1H-1,2,4-triazol-3-yl]amino}phenyl)-1,3-thiazol-2-yl]cyclobutanol]
6.94 | Cc1cc(Nc2ncn(C3CCCCC3)n2)cc(-c2cnc(C3(O)CCC3)s2)c1 [Example 2.16, 1-(5-{3-[(1-cyclohexyl-1H-1,2,4-triazol-3-yl)amino]-5-methylphenyl}-1,3-thiazol-2-yl)cyclobutanol]
5.11 | Cc1cc(Nc2ncnn2C2CCC2)cc(-c2cnc(C3(O)CCC3)s2)c1 [Example 2.18, 1-(5-{3-[(1-cyclobutyl-1H-1,2,4-triazol-5-yl)amino]-5-methylphenyl}-1,3-thiazol-2-yl)cyclobutanol]
5.41 | Cc1cc(Nc2ncn(C(=O)N(C)C)n2)cc(-c2cnc(C3(O)CCC3)s2)c1 [Example 2.15, 3-({3-[2-(1-hydroxycyclobutyl)-1,3-thiazol-5-yl]-5-methylphenyl}amino)-N,N-dimethyl-1H-1,2,4-triazole-1-carboxamide]
5.95 | Cc1cc(Nc2cc[nH]n2)cc(-c2cnc(C3(O)CCC3)s2)c1 [Example 2.4, 1-{5-[3-methyl-5-(1H-pyrazol-3-ylamino)phenyl]-1,3-thiazol-2-yl}cyclobutanol]
7.43 | Cc1cc(Nc2ncn(C(C)C)n2)cc(-c2cnc([C@]3(O)CC[C@@H](C(N)=O)CC3)s2)c1 [Example 2.23, cis-4-hydroxy-4-[5-(3-methyl-5-{[1-(1-methylethyl)-1H-1,2,4-triazol-3-yl]amino}phenyl)-1,3-thiazol-2-yl]cyclohexanecarboxamide]
8.00 | Cc1cc(Nc2ncn(C(C)C)n2)cc(-c2cnc([C@]3(O)CC[C@@H](C(=O)O)CC3)s2)c1 [Example 2.22, cis-4-hydroxy-4-[5-(3-methyl-5-{[1-(1-methylethyl)-1H-1,2,4-triazol-3-yl]amino}phenyl)-1,3-thiazol-2-yl]cyclohexanecarboxylic acid]
6.73 | Cc1cc(Nc2ncn(C)n2)cc(-c2cnc(C3(O)CCC3)s2)c1 [Example 2.10, 1-(5-{3-methyl-5-[(1-methyl-1H-1,2,4-triazol-3-yl)amino]phenyl}-1,3-thiazol-2-yl)cyclobutanol]
8.00 | CCn1cnc(Nc2cc(C)cc(-c3cnc(C4(O)CCC(C(=O)O)CC4)s3)c2)n1 (centres unmarked) [Example 2.2, 4-(5-(3-((1-ethyl-1H-1,2,4-triazol-3-yl)amino)-5-methylphenyl)thiazol-2-yl)-4-hydroxycyclohexanecarboxylic acid]
7.31 | CCn1cnc(Nc2cc(C)cc(-c3cnc(C4(O)CCC4)s3)c2)n1 [Example 2.12, 1-(5-{3-[(1-ethyl-1H-1,2,4-triazol-3-yl)amino]-5-methylphenyl}-1,3-thiazol-2-yl)cyclobutanol]
7.01 | CCCn1cnc(Nc2cc(C)cc(-c3cnc(C4(O)CCC4)s3)c2)n1 [Example 2.13, 1-(5-{3-methyl-5-[(1-propyl-1H-1,2,4-triazol-3-yl)amino]phenyl}-1,3-thiazol-2-yl)cyclobutanol]
5.48 | Cc1cc(Nc2ncnn2C2CCC2)cc(-c2cnc([C@]3(O)CC[C@@H](C(=O)O)CC3)s2)c1 [Example 2.21, cis-4-(5-{3-[(1-cyclobutyl-1H-1,2,4-triazol-5-yl)amino]-5-methylphenyl}-1,3-thiazol-2-yl)-4-hydroxycyclohexane-carboxylic acid]
8.59 | Cc1cc(Nc2ncn(C3CCC3)n2)cc(-c2cnc([C@]3(O)CC[C@@H](C(=O)O)C(C)(C)C3)s2)c1 (single isomer, unassigned) [Example 2.25, (1R,4S or 1S,4R)-4-(5-{3-[(1-cyclobutyl-1H-1,2,4-triazol-3-yl)amino]-5-methylphenyl}-1,3-thiazol-2-yl)-4-hydroxy-2,2-dimethylcyclohexanecarboxylic acid]
5.89 | Cc1cc(Nc2n[nH]c(C)n2)cc(-c2cnc(C3(O)CCC3)s2)c1 [Example 2.9, 1-(5-{3-methyl-5-[(5-methyl-1H-1,2,4-triazol-3-yl)amino]phenyl}-1,3-thiazol-2-yl)cyclobutanol]
6.49 | Cc1cc(Nc2ncn(Cc3ccccc3)n2)cc(-c2cnc(C3(O)CCC3)s2)c1 [Example 2.19, 1-(5-{3-[(1-benzyl-1H-1,2,4-triazol-3-yl)amino]-5-methylphenyl}-1,3-thiazol-2-yl)cyclobutanol]
6.56 | Cc1cc(Nc2cc(C3CCC3)[nH]n2)cc(-c2cnc(C3(O)CCC3)s2)c1 [Example 2.7, 1-(5-{3-[(5-cyclobutyl-1H-pyrazol-3-yl)amino]-5-methylphenyl}-1,3-thiazol-2-yl)cyclobutanol]
